We go through seven compounds from ChEMBL document CHEMBL3430912, “GSK Tres Cantos Anti-Kinetoplastid Screening (TCAKS) Data”.

A value given as a limit tells only on which side of the number the result lay.

A word on the IC50: it is the point on the concentration scale where inhibition reaches its midpoint.

The subject of data set [1] is Trypanosoma cruzi. The data set is described as follows: GSK_TCAKS: pIC50 Trypanosoma cruzi viability assay using beta-GAL activity. This assay was run at single shot at 5uM compound concentration per well. The biological reagents consisted of NIH-3T3 host cells and trypomastigotes parasitic cells; both cell types were set to a 3.3 * 10^5 cells/mL dilution in assay DMEM by means of a CASY cell counter device using a 60um capillary. 6 uL of the mixture were dispensed per well (about 1 * 10^3 host-cells and 1 * 10^3 parasites) with a Multidrop Combi dispenser. […] In all wells, the percentage of DMSO never exceeded 0.5%. Plates incubated for four days at 37C, 5% CO2. The substrate used for the assay fluorescence intensity (FLINT) readout was resorufin-beta-D-galactopiranoside (Sigma-Aldrich) at 5uM per well. It was diluted in PBS supplemented with the soft detergent Igepal (Fluka). It counts as functional, organism-based, Mus musculus. As to conditions: Tulahuen, NIH3T3.

Data set [2] concerns Trypanosoma cruzi. In words: (§1) GSK_TCAKS: pIC50 Trypanosoma cruzi Imaging: Infected Cells. […] Cells were then washed once with PBS before infection. T. cruzi trypomastigotes, collected at days 5 to 8 after infection from LLC-MK2 parasite infected cultures, were allowed to swim out for 4h at 37C from a centrifuged pellet (2,500 rpm/10 min/room temperature). Trypomastigotes were then collected and counted in a CASY Cell Counter. Trypomastigotes, in supplemented DMEM, were added to H9c2 cultures in a multiplicity of infection of 1 and incubated for 18 h. Cells were washed once with PBS before incubation of the infected H9c2 monolayer with trypsin (Life-Technologies) to detach cells from the flask. Cells were counted in a CASY Cell Counter using a 150 um capillary and their density set at 5 * 10^4 cells per mL in supplemented assay DMEM. Infected H9c2 were dispensed into 384-well poly-lysine coated assay plates at 50uL per well using a Multidrop Combi dispenser. After seeding them, the plates were incubated at 37C, 5% CO2 for 72h. Cultures were then fixed and stained by addition of 50 uL of a solution containing 8% formaldehyde and 4 uM DRAQ5 DNA dye (BioStatus, UK) per well. […] Five images were collected per well for reliable statistical analysis. Automated image analysis was performed with a script developed on Acapella High Content Imaging and Analysis Software (PerkinElmer). Output: percentage of infected cells per well as a second infection marker. The class given is functional, organism-based, Rattus norvegicus. As to conditions: H9c2, 4 h.

For data set [3], the system named is Trypanosoma cruzi. In words: GSK_TCAKS: pIC50 Trypanosoma cruzi Imaging: Amastigotes/Cell. […] Cells were then washed once with PBS before infection. T. cruzi trypomastigotes, collected at days 5 to 8 after infection from LLC-MK2 parasite infected cultures, were allowed to swim out for 4h at 37C from a centrifuged pellet (2,500 rpm/10 min/room temperature). Trypomastigotes were then collected and counted in a CASY Cell Counter. Trypomastigotes, in supplemented DMEM, were added to H9c2 cultures in a multiplicity of infection of 1 and incubated for 18 h. Cells were washed once with PBS before incubation of the infected H9c2 monolayer with trypsin (Life-Technologies) to detach cells from the flask. Cells were counted in a CASY Cell Counter using a 150 um capillary and their density set at 5 * 10^4 cells per mL in supplemented assay DMEM. Infected H9c2 were dispensed into 384-well poly-lysine coated assay plates at 50uL per well using a Multidrop Combi dispenser. After seeding them, the plates were incubated at 37C, 5% CO2 for 72h. Cultures were then fixed and stained by addition of 50 uL of a solution containing 8% formaldehyde and 4 uM DRAQ5 DNA dye (BioStatus, UK) per well. […] Five images were collected per well for reliable statistical analysis. Automated image analysis was performed with a script developed on Acapella High Content Imaging and Analysis Software (PerkinElmer). Output: number of amastigotes per cell as infection level measurement. The following applies: H9c2, 4 h. The class given is functional, organism-based, Rattus norvegicus.

Data set [4] relates to Trypanosoma cruzi. Described as §1, with “H2C9” for “Trypanosoma cruzi”, “H9c2 Host Cardiomyocytes.” for “Infected Cells.”, “Number” for “percentage”, “H9c2 Host Cardiomyocytes nuclei to determine drug-related cytotoxicity.” for “infected cells per well as a second infection marker.”. It counts as functional, organism-based, Rattus norvegicus. As to conditions: H9c2, 4 h.
Data set [5] relates to Leishmania donovani. The data set is described as follows: GSK_TCAKS: pIC50 Leishmania donovani viability assay using fluorescence intensity. Assay plates (1536-well) were prepared by adding 30nL per well of compound. For single shot assay, the final compound concentration was 5uM. […] Briefly, eGFP LdBOB axenic amastigotes were harvested, fixed and counted in a CASY cell counter (Roche-Applied Science). A final concentration of 1.5 * 10^5 cells per well were prepared in amastigote media containing 500 U/mL penicillin/streptomycin (Invitrogen) and 6uL was dispensed to each experimental well using a Multidrop Combi dispenser (Thermo Scientific). 6uL of assay media was dispensed to control columns used as reference for 100% compound response. Following incubation for 72 h at 37C, 5% CO2, 2 uL of resazurin was added to each well at a final concentration of 0.5 mM in phosphate buffered saline (PBS) with IGEPAL (Sigma-Aldrich), 0.05% (v/v). The class given is functional, organism-based. Background: Resazurin is reduced to fluorescent resorufin, in cell work by metabolically active cells.

The subject of data set [6] is Leishmania donovani. The data set is described as follows: GSK_TCAKS: pIC50 Leishmania donovani Imaging: Infected Macrophages. Assay plates (384-well) were prepared by adding 250nL of compound to each well. For single shot assay, the final compound concentration was 5 uM. […] Automated image analysis was performed with a script developed on Acapella High Content Imaging and Analysis Software (PerkinElmer). Output: Percent of infected macrophage cells were reported for each well. The class given is functional, organism-based, Homo sapiens. As to conditions: THP-1.

In data set [7] the test system is Leishmania donovani. The data set is described as follows: GSK_TCAKS: pIC50 Leishmania donovani Imaging: Amastigotes/Macrophages. Assay plates (384-well) were prepared by adding 250nL of compound to each well. For single shot assay, the final compound concentration was 5 uM. […] Automated image analysis was performed with a script developed on Acapella High Content Imaging and Analysis Software (PerkinElmer). Output: Average number of amastigotes per macrophage cell were reported for each well. It counts as functional, organism-based, Homo sapiens. As to conditions: THP-1.

The subject of data set [8] is Leishmania donovani. The data set is described as follows: GSK_TCAKS: pIC50 Leishmania donovani Imaging: THP-1 Host Macrophages. Assay plates (384-well) were prepared by adding 250nL of compound to each well. For single shot assay, the final compound concentration was 5 uM. […] Automated image analysis was performed with a script developed on Acapella High Content Imaging and Analysis Software (PerkinElmer). Output: THP-1 cell count were reported for each well. The class given is functional, organism-based, Homo sapiens.

Data set [9] concerns Trypanosoma brucei brucei. In words: GSK_TCAKS: pIC50 Trypanosoma brucei viability assay using fluorescence intensity. Assay plates (1536-well) were prepared by dispensing 25nL of compound solution per well using an Echo acoustic dispenser (Labcyte). As to conditions: Lister 427, 2 h. The class given is functional, organism-based.
Data set [10] deals with Trypanosoma brucei brucei. In words: GSK_TCAKS: pIC50 Trypanosoma brucei viability assay using luminiscence. Assay plates (1536-well) were prepared. T. brucei cultures were harvested and counted in a CASY cell counter. A parasite suspension was prepared at a final concentration of 5 * 10^4 cells/mL in complete HMI9 medium and 6uL was dispensed to all wells containing compounds using a Multidrop Combi dispenser. 6uL of HMI9 media with 0.4% DMSO were dispensed to control columns. Plates were incubated for 24 h at 37C, 5% CO2 then tempered for 10 min at room temperature. ATP content was quantified by adding 4 uL of CellTiter-Glo Reagent (Promega) according to the manufacturer's instructions. Luminescence was measured using a ViewLux. It counts as functional, organism-based. The following applies: Lister 427, CASY. On the technique in general: ATP-based viability assays read luminescence as a measure of living cells.

The nature of data set [11]: GSK_TCAKS: pIC50 HepG2 human cell line viability assay using luminiscence. […] Seeding density was checked to ensure that new mono-layers were not more than 50% confluent at the time of harvesting. Cell suspension was added to 500 mL of the same medium at a final density of 1.2 * 10^5 cells/mL. This cell suspension was dispensed (25 uL, 3000 cells per well) into 384-well clear-bottom plates using a Multidrop Combi dispenser. Prior to addition of the cell suspension, the screening compounds (250 nL) were pre-dispensed into the plates with an Echo liquid handler. Plates were incubated for 48 h at 37C, 5% CO2. After incubation, plates equilibrated at room temperature for 30 min before proceeding to develop the luminescent signal. The signal developer, CellTiter-Glo Reagent, was allowed to equilibrate at room temperature for 30 min and added to the plates (25uL per well) using a Multidrop Combi dispenser. Plates were left for 10 min at room temperature for stabilization and then read using a ViewLux. The class given is toxicity, cell-based.

The target in data set [12] is Sterol 14-alpha demethylase (Trypanosoma cruzi (strain CL Brener), UniProt Q7Z1V1). In words: GSK_TCAKS: pIC50 CYP51 from Trypanosoma cruzi. The class given is functional.
Sterol 14-alpha demethylase, sequence (Q7Z1V1 whole entry): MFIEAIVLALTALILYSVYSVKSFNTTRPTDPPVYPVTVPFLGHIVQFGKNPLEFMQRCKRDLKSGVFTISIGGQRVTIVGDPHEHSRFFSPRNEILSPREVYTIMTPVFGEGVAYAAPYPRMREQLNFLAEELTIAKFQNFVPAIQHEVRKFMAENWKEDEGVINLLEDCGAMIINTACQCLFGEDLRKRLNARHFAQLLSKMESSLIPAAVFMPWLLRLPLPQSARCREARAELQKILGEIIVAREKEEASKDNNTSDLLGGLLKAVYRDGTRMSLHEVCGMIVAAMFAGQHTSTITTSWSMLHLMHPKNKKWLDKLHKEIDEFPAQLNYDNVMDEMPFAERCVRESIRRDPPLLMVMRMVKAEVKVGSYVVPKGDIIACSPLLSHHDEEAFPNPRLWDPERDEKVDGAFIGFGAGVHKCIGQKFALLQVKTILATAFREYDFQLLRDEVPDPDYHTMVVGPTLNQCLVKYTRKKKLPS

Take `O=C(NCCc1csc(-c2ccc(F)cc2)n1)c1ccco1`: the IC50 with Trypanosoma cruzi [1] is 2.24 µM; in the data set with Trypanosoma cruzi [2], 1.58 µM; in the data set with Trypanosoma cruzi [3], 1.26 µM; in the data set on Trypanosoma cruzi [4], greater than 50.1 µM; in the data set with Leishmania donovani [5], greater than 50.1 µM; in the data set with Leishmania donovani [6], greater than 50.1 µM. For the same compound, the IC50 with Leishmania donovani [7] is greater than 50.1 µM; with Leishmania donovani [8], greater than 50.1 µM; in [9], 0.398 µM; in data set [10], 0.501 µM; in data set [12] it was greater than 100 µM. This compound also showed an IC50 at 48 h in data set [11] greater than 100 µM.

In the case of `OCC1CCCCN1c1cc(-c2ccccn2)nc(Nc2ccccc2)n1` (centres undefined), the IC50 in the data set with Trypanosoma cruzi [1] is 0.794 µM; in the data set with Trypanosoma cruzi [2], 3.98 µM; with Trypanosoma cruzi [3] it was 2 µM; in the data set on Trypanosoma cruzi [4], 0.501 µM; in the data set on Leishmania donovani [5], 3.16 µM; in the data set on Leishmania donovani [6] it was 1.26 µM. The IC50 in the data set with Leishmania donovani [7] was 1 µM; in the data set with Leishmania donovani [8], 20 µM; in data set [9], 5.01 µM; in data set [10], 6.31 µM; in data set [12] it was 79.4 µM. Besides, half-maximal inhibition in [11] (IC50 at 48 h) was put at 31.6 µM.

For the compound `Cc1ccc(Nc2nc(-c3ccccn3)cc(N3CCCC(O)C3)n2)cc1` (centres undefined), the IC50 with Trypanosoma cruzi [1] is 0.501 µM; with Trypanosoma cruzi [2], 6.31 µM; in the data set on Trypanosoma cruzi [3], 2.51 µM; with Trypanosoma cruzi [4] it was 0.501 µM; in the data set with Leishmania donovani [5], 2 µM; in the data set on Leishmania donovani [6], 0.794 µM. For the same compound, the IC50 is 0.501 µM with Leishmania donovani [7]; 25.1 µM in the data set with Leishmania donovani [8]; 3.16 µM in [9]; 3.16 µM in [10]; 25.1 µM in [12]. Inhibition in [11] was half-maximal at 39.8 µM (IC50 at 48 h).

On to `COc1ccc(Nc2nc(-c3ccccn3)cc(N3CCCC(O)C3)n2)cc1` (centres undefined), for which the IC50 in the data set with Trypanosoma cruzi [1] is 0.631 µM; in the data set with Trypanosoma cruzi [2], 5.01 µM; in the data set on Trypanosoma cruzi [3], 7.94 µM; in the data set with Trypanosoma cruzi [4] it was 3.98 µM; with Leishmania donovani [5] it was 2.51 µM; in the data set with Leishmania donovani [6] it was 1 µM. In addition, the IC50 in the data set on Leishmania donovani [7] was 0.794 µM; in the data set with Leishmania donovani [8] it was 25.1 µM; in [9], 3.98 µM; in [10], 12.6 µM; in data set [12], 50.1 µM. For the same compound, the IC50 at 48 h in [11] was 39.8 µM.

Take `Cc1nn(-c2nc(N)nc(-c3ccccn3)n2)c(N)c1-c1ccccc1`: the IC50 with Trypanosoma cruzi [1] was 3.98 µM; in the data set on Trypanosoma cruzi [2], 5.01 µM; with Trypanosoma cruzi [3] it was 1.26 µM; with Trypanosoma cruzi [4], 12.6 µM; in the data set on Leishmania donovani [5], 5.01 µM; in the data set on Leishmania donovani [6] it was 3.16 µM. Moreover, the IC50 with Leishmania donovani [7] is 2 µM; in the data set with Leishmania donovani [8], 20 µM; in data set [9] it was 2 µM; in data set [10], 6.31 µM; in data set [12], greater than 100 µM. The same compound showed an IC50 at 48 h in [11] of 63.1 µM.

Consider `Nc1nc(-c2ccccn2)nc(-n2nc(-c3ccccc3)cc2N)n1`, for which the IC50 is 0.501 µM with Trypanosoma cruzi [1]; 2.51 µM with Trypanosoma cruzi [2]; 0.316 µM with Trypanosoma cruzi [3]; 2 µM in the data set with Trypanosoma cruzi [4]; 2 µM in the data set with Leishmania donovani [5]; 0.794 µM with Leishmania donovani [6]. Further, the IC50 with Leishmania donovani [7] was 0.794 µM; in the data set with Leishmania donovani [8], 10 µM; in data set [9] it was 1 µM; in data set [10], 3.16 µM; in [12], greater than 100 µM. Besides, 10 µM corresponded to half-maximal inhibition in data set [11] (IC50 at 48 h).

With `CC(C)(C)C(=O)NCCc1csc(-c2ccc(F)cc2)n1`, the IC50 in the data set with Trypanosoma cruzi [1] is 3.55 µM; with Trypanosoma cruzi [2], 3.16 µM; in the data set with Trypanosoma cruzi [3] it was 2.51 µM; with Trypanosoma cruzi [4] it was greater than 50.1 µM; in the data set with Leishmania donovani [5], greater than 50.1 µM; with Leishmania donovani [6], greater than 50.1 µM. Besides, the IC50 with Leishmania donovani [7] is greater than 50.1 µM; in the data set with Leishmania donovani [8], greater than 50.1 µM; in data set [9] it was 0.631 µM; in data set [10] it was 0.794 µM; in data set [12], 79.4 µM. This compound had an IC50 at 48 h in data set [11] greater than 100 µM.
